Test results: PubChem BioAssay (NCI)
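Where inhibition never reached the appropriate level, the endpoint shown equals the highest concentration tested. Otherwise, values were interpolated linearly from a five-concentration, 48-hour dose response in 96-well plates. The concentration for full growth arrest is given as TGI.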

Assays:
Assay in all cases: NCI tumour cell line growth inhibition, 48 h
[1] = test system: COLO 205 colon
[2] = test system: EKVX NSCLC
[3] = test system: HCC-2998 colon
[4] = test system: HCT-15 colon
[5] = test system: HT29 colon
[6] = test system: LOX IMVI melanoma
[7] = test system: MALME-3M melanoma
[8] = test system: MDA-N
[9] = test system: NCI-H23 lung
[10] = test system: NCI-H522 lung
[11] = test system: OVCAR-4 ovarian
[12] = test system: OVCAR-5 ovarian
[13] = test system: SF-539 CNS
[14] = test system: SK-MEL-2 melanoma
[15] = test system: SK-MEL-28 melanoma
[16] = test system: SN12C renal
[17] = test system: SR leukemia
[18] = test system: SW-620 colon
[19] = test system: UACC-62 melanoma

Row | Compound | TGI [1] | TGI [2] | TGI [3] | TGI [4] | TGI [5] | TGI [6] | TGI [7] | TGI [8] | TGI [9] | TGI [10] | TGI [11] | TGI [12] | TGI [13] | TGI [14] | TGI [15] | TGI [16] | TGI [17] | TGI [18] | TGI [19]
1 | Cc1ccc(S(=O)(=O)N/N=C2\CCC3(O)CC2(C)CCC2C3CC2(C)C)cc1 (stereo not given) | 46.5 µM | > 100 µM | > 100 µM | > 100 µM | > 100 µM | > 100 µM | > 100 µM | > 100 µM | > 100 µM | 52.9 µM | > 100 µM | > 100 µM | > 100 µM | 87.1 µM | > 100 µM | > 100 µM | > 100 µM | > 100 µM | > 100 µM
2 | CCC1(CC)N=C(C(F)(F)F)c2cc(C(=O)C(F)(F)F)c3ccccc3c2N1 | 28.4 µM | 64.2 µM | 15.3 µM | > 100 µM | 81.4 µM | 13.7 µM | 57.3 µM | 15.7 µM | 11.2 µM | 11.1 µM | > 100 µM | 58.1 µM | 31.8 µM | 10.4 µM | 52.2 µM | 13.7 µM | 9.36 µM | > 100 µM | 13.3 µM
3 | c1ccc2c(c1)c1c3c(c4c(n32)=NCCN4)CCC1 | > 100 µM | > 100 µM | > 100 µM | > 100 µM | 56.7 µM | 43.3 µM | > 100 µM | 59.3 µM | > 100 µM | 61.2 µM | > 100 µM | > 100 µM | > 100 µM | 66.2 µM | > 100 µM | 49.4 µM | 47.4 µM | > 100 µM | > 100 µM
4 | CCS(=O)c1c2cc(OC)ccc2nc2ccc(OC)cc12 (stereo not given) | 15.4 µM | 32.3 µM | 41.8 µM | > 52.5 µM | 10 µM | > 100 µM | 12.6 µM | 16.3 µM | 19.9 µM | 3.97 µM | 36.1 µM | 41.7 µM | > 59 µM | 35.3 µM | 23.4 µM | 8.99 µM | > 25 µM | > 65.9 µM | 33.4 µM
5 | CN(C)CCCNC(=O)c1cc(NS(=O)(=O)c2ccc3c(c2)C(=O)c2ccccc2C3=O)cn1C | > 100 µM | > 100 µM | 57.3 µM | > 100 µM | 81.4 µM | 39.6 µM | 18.7 µM | 60 µM | 64.7 µM | 52.5 µM | 36.8 µM | > 100 µM | 75.6 µM | > 100 µM | 50.8 µM | 90.7 µM | 85.2 µM | > 100 µM | 41.4 µM
